One assay relates to leukemia (P388SS). In kind it is in vivo, mouse. The following applies: for % increase in survival time versus nontreated control: control = 100. The procedure: In an in vivo mouse study for leukemia (P388SS), carbendazim (2-carbonylaminobenzimidazole) was tested in combination with griseofulvin.
Another assay relates to leukemia (P338). In kind it is in vivo. The conditions noted are these: ten mice; for mean number of survival days: dosed 5 days, off 2, dosed 5, off 3. As for the experimental part:
Mice were randomly selected and divided into five groups of ten mice each: Group 1—a control group receiving canola oil but no drug treatment; Group 2—a treatment group receiving 125 mg of cytoxan (2-bis(2-chloroethyl)-amino-1-oxo-2-aza-5-oxophosphoridin) per kg of body weight; Group 3—a treatment group receiving 4000 mg of carbendazim per kg of body weight; Group 4—a treatment group receiving 2500 mg of carbendazim per kg of body weight; and Group 5—a treatment group receiving 1000 mg of carbendazim per kg of body weight. The five groups were infected with leukemia (P338). The diseased animals were dosed for five days, off two days, dosed again for another five days and off again for three days.

Like-named read-outs stand apart in the source and are kept apart here.

In the case of `COC1=CC(=O)C[C@@H](C)[C@]12Oc1c(Cl)c(OC)cc(OC)c1C2=O` [Griseofulvin], the “% increase in survival time versus nontreated control” value in the assay on leukemia (P388SS) (griseofulvin 3000 mg/kg, carbendazim 0 mg/kg) turned out to be 130%; with leukemia (P388SS) (griseofulvin 4000 mg/kg, carbendazim 0 mg/kg), 165%; with leukemia (P388SS) (griseofulvin 5000 mg/kg, carbendazim 0 mg/kg), 213%.
Turning to `COC(=O)Nc1nc2ccccc2[nH]1` [carbendazim, 2-(methoxycarbonylamino)benzimidzole], the “mean number of survival days” value with leukemia (P338) (Group 3, 4000 mg carbendazim per kg, after infection with leukemia) was 17.3 days; in the assay with leukemia (P338) (Group 4, 2500 mg carbendazim per kg), 16.5 days; in the assay on leukemia (P338) (Group 5, 1000 mg carbendazim per kg), 14.1 days. In addition, the “% increase in survival time versus nontreated control” value came to 153% with leukemia (P388SS) (griseofulvin 0 mg/kg, carbendazim 1000 mg/kg); 190% in the assay with leukemia (P388SS) (griseofulvin 0 mg/kg, carbendazim 2000 mg/kg); 176% in the assay on leukemia (P388SS) (griseofulvin 0 mg/kg, carbendazim 3000 mg/kg).
`O=P1(N(CCCl)CCCl)NCCCO1` (centres unmarked) [cytoxan, 2-bis(2-chloroethyl)-amino-1-oxo-2-aza-5-oxophosphoridin, reference compound]: the “deaths after infection with leukemia” value in the assay on leukemia (P338) (Group 2, 125 mg cytoxan per kg, up to twenty one days after infection) was “none died”. Moreover, the “deaths during the test period” value in the assay with leukemia (P388SS) (positive control, 300 mg/kg (qdx1)) is listed as “no deaths”.

The values are drawn from patent US6552059B2, “Pharmaceutical composition for and method of treating leukemia” (priority 1995, dated 2003).
